{"source": "patent US20230372221A1", "about": "“USE OF THIOPYRIDINONE COMPOUNDS FOR PREVENTING THE FORMATION OF CUTANEOUS BLACKHEADS” (L'OREAL, priority 2020, published 2023)", "system": "oxidation of the L-DOPA under the action of the bacterial extract (intracellular extract of Cutibacterium acnes CIP 53.117)", "assay": "In vitro evaluation of the ability to inhibit the development of the colour (absorbance at 475 nm of L-DOPA + Cutibacterium acnes extract)", "type": "biochemical", "details": "for inhibiting the development of the colour (result in words): compared with Reference (absence of treatment); for optical density at 475 nm: 32° C.", "description": "This method is based on the measurement of absorbance, over time, carried out directly on a composition formed of a mixture of intracellular extract of bacteria of Cutibacterium acnes type, of 3,4-dihydroxy-L-phenylalanine (L-DOPA) and of a test compound. The measurements are compared with those carried out for a mixture of an intracellular extract of bacteria of Cutibacterium acnes type and of 3,4-dihydroxy-L-phenylalanine (L-DOPA), in the absence of test compound (reference). The method is adapted from a method for the enzymatic assay of the tyrosinase activity (Behbahani et al., Microchemical Journal (1993), 47, 251), which is based on the absorbance properties at 475 nm of a coloured intermediate of the pathway for the biosynthesis of melanin starting from L-DOPA, namely dopachrome, a product of the oxidation of L-DOPA. An intracellular extract of bacteria of Cutibacterium acnes CIP 53.117 type stored at 4° C. in the lyophilized form is suspended in 1×PBS (supplied by Gibco BRL Life Technologies) at a concentration of 6 mg/ml. A solution of L-DOPA at a concentration of 0.5 mg/ml is prepared by bringing together L-DOPA (supplied by Sigma-Aldrich) and milliQ water, so as to have an L-DOPA concentration of 1 mg/ml, then diluting with 1×PBS (Dulbecco's Phosphate Buffered Saline, supplied by Gibco BRL Life Technologies). The mixture of 50 μl of these two solutions and of 100 μl of 1×PBS (Dulbecco's Phosphate Buffered Saline, supplied by Gibco BRL Life Technologies) results in a composition with a total volume of 200 μl containing L-DOPA (at a concentration of 125 μg/ml) and Cutibacterium acnes extract (at a concentration of 1.5 mg/ml). The test compositions and the reference composition are introduced separately into wells of a 96-well microplate suitable for reading in visible spectrophotometry, and placed at a temperature of 32° C. The formation of a coloured product is monitored over time by spectrophotometry. To do this, the absorbance, or optical density (O.D.), is measured at 475 nm from the time 0 to the time 2 hours by means of a Spectra Max M5e reader and the Spectra Max software (the time 0 corresponds to the introduction of the composition into the wells). The ability to inhibit the development of the colour of a given compound was assessed by comparing the absorbance measurements obtained for the test compositions with those obtained for the reference composition. More specifically, the inhibitory effect of the test compound was evaluated by comparing the initial rate of oxidation of the L-DOPA under the action of the bacterial extract at 475 nm for the test composition with that of the reference composition in order to obtain a corresponding percentage of inhibition. In practice, the initial rate (Vi) of the oxidation reaction is calculated from the linear part of the curve of the graph of the absorbance values. As this part lies between 10 and 40 minutes (see the graph in FIG. 1), the initial rate of the oxidation reaction is determined using the following relationship: [formula] The percentage of inhibition (% inhib) of a given compound with regard to the formation of the coloured product is subsequently obtained using the values of the initial rate of the oxidation reaction for the reference composition (Viref) and for the test composition ([…]) according to the following relationship: [formula] Within the meaning of the invention, a compound is regarded as having an inhibitory effect if the % inhib value is at least 15%."}
{"smiles": "CCCCc1ccc(O)cc1O", "note": "[Lucinol, 4-butylresorcinol, reference compound]", "values": [{"measurement": "inhibiting the development of the colour (result in words)", "result": "does not make it possible to inhibit the development of the colour"}, {"measurement": "inhibiting the development of the colour (result in words)", "setting": "listed as lucinol", "result": "without effect"}, {"measurement": "optical density at 475 nm", "setting": "test compound 100 μM, duration 0 minutes", "result": 0.0552}, {"measurement": "optical density at 475 nm", "setting": "test compound 100 μM, duration 10 minutes", "result": 0.0563}, {"measurement": "optical density at 475 nm", "setting": "test compound 100 μM, duration 20 minutes", "result": 0.0591}, {"measurement": "optical density at 475 nm", "setting": "test compound 100 μM, duration 30 minutes", "result": 0.0629}, {"measurement": "optical density at 475 nm", "setting": "test compound 100 μM, duration 40 minutes", "result": 0.0671}, {"measurement": "optical density at 475 nm", "setting": "test compound 100 μM, duration 60 minutes", "result": 0.0730}, {"measurement": "optical density at 475 nm", "setting": "test compound 100 μM, duration 80 minutes", "result": 0.0758}, {"measurement": "optical density at 475 nm", "setting": "test compound 100 μM, duration 100 minutes", "result": 0.0768}, {"measurement": "optical density at 475 nm", "setting": "test compound 100 μM, duration 120 minutes", "result": 0.0765}, {"measurement": "% inhib (percentage of inhibition of the formation of the coloured product)", "setting": "test compound 100 μM, from initial rate of oxidation between 10 and 40 minutes vs reference composition", "result": 0, "unit": "%"}]}
